Legend:
Type in all cases: cell-based
recombinant CYP-17 = biological target: T1, recombinant CYP-17 (Homo sapiens, UniProt P05093); experiment: Cyp17 assay: AD293 cells over-expressing recombinant CYP-17, 3H-acetic acid release from [21-3H] 17α-hydroxyl-Pregnenolone; conditions: for IC50: AD293 cells, eight concentrations 10 μM to 4.5 nM
T1 construct: expressed in transfected cells
T1 sequence (P05093 1-508): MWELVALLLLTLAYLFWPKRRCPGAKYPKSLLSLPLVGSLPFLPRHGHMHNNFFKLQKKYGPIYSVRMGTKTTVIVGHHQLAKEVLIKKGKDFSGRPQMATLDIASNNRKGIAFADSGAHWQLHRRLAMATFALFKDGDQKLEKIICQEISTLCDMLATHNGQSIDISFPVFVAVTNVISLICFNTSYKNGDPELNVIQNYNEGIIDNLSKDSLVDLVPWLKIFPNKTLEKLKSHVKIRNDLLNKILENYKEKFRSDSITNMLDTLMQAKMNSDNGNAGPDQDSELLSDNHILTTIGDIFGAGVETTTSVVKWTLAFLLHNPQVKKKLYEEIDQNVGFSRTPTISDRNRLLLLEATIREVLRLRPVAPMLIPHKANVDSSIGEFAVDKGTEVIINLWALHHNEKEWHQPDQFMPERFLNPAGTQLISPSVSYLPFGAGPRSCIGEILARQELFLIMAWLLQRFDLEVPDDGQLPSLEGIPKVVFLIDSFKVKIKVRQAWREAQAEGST
Procedure: Cyp17 assay protocol: AD293 cells that stably over-express recombinant CYP-17 were seeded in 96 well plates coated with poly D-lysine (15,000 cell per well) and incubated at 37° C. for 24 hours in Dulbecco's Modified Eagle Medium (DMEM) with Fetal Bovine Serum (FBS) that is stripped of hormones by charcoal treatment. The media is then removed, the cells are washed once with Phosphate buffer saline solution, and 50 μL Dulbecco's Modified Eagle Medium (DMEM) with Fetal Bovine Serum (FBS) that is stripped of hormones by charcoal treatment is added. Compounds of the disclosure are then added to the wells in eight concentration spanning 10 μM to 4.5 nM, and the plates are incubated for an additional 60 minutes at 37° C. [21-^3H] […] The media is then collected, 200 μL of chloroform is added, and the mixture is shaken for 1 hour. The aqueous layer is then separated and analyzed for the presence of ^3H-acetic acid using a Perkin Elmer Topcount NXT to determine IC50s of the compounds of the disclosure.

recombinant CYP-11 = biological target: T2, recombinant CYP-11 (Homo sapiens, UniProt P15538); experiment: Cyp11 assay: AD293 cells over-expressing recombinant CYP-11, cortisol formation from 11-deoxycortisol by LC/MS; conditions: eight concentrations 10 μM to 4.5 nM
T2 construct: expressed in transfected cells
T2 sequence (P15538 25-503): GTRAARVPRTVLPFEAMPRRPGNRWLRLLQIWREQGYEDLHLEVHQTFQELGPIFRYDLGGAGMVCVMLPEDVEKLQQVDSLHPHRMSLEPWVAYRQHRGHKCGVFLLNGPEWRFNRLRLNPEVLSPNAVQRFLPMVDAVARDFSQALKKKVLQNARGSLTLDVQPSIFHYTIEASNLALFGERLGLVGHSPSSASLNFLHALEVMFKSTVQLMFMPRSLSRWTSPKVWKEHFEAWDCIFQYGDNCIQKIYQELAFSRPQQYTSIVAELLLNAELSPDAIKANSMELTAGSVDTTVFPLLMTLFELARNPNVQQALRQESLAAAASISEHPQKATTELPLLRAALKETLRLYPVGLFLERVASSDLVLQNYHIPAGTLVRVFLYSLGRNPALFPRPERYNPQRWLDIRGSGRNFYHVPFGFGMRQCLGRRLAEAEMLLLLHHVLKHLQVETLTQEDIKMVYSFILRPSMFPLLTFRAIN
Procedure: (§1) AD293 cells that stably over-express recombinant CYP-11 were seeded in 96 well plates coated with poly D-lysine (15,000 cell per well) and incubated at 37° C. for 24 hours in Dulbecco's Modified Eagle Medium (DMEM) with Fetal Bovine Serum (FBS) that is stripped of hormones by charcoal treatment. The media is then removed, the cells are washed once with Phosphate buffer saline solution, and 50 μL Dulbecco's Modified Eagle Medium (DMEM) with Fetal Bovine Serum (FBS) that is stripped of hormones by charcoal treatment is added. Compounds of the disclosure are then added to the wells in eight concentration spanning 10 μM to 4.5 nM, and the plates are incubated for an additional 60 minutes at 37° C. 11-deoxycortisol is then added (2.0 μM) and the plates are incubated for an additional 12 hours at 37° C. After incubation, 50 uL of the supernatant (medium) is transferred into a fresh plate and 150 uL of an acetonitrile solution containing 200 ng/ml of Telmisartan is added. The sample is mixed and then placed in a centrifuge at 2000 rpm for 5 minutes.

recombinant CYP-21 = biological target: T3, recombinant CYP-21 (Homo sapiens, UniProt P08686); experiment: Cyp21 assay: AD293 cells over-expressing recombinant CYP-21, 11-deoxycortisol formation from 17α-OH Progesterone by LC/MS; conditions: eight concentrations 10 μM to 4.5 nM
T3 construct: expressed in transfected cells
T3 sequence (P08686 1-495): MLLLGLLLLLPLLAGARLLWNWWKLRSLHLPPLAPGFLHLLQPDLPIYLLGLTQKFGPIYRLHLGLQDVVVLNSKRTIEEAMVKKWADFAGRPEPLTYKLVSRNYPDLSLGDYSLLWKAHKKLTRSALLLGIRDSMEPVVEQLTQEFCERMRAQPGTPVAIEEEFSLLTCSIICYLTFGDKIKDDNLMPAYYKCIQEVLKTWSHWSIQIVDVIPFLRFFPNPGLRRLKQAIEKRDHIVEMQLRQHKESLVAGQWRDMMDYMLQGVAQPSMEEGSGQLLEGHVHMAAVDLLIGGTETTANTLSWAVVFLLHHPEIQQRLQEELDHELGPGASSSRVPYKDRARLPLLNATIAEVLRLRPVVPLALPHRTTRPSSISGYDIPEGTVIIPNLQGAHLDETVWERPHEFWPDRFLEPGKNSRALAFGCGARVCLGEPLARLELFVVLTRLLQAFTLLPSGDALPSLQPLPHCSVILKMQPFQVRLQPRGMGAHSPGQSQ
Procedure: as §1, with “Cyp21 assay protocol: AD293” for “AD293”, “CYP-21” for “CYP-11”, “(10,000” for “(15,000”, “17α-OH Progesterone” for “11-deoxycortisol”, “(1.0” for “(2.0”, “45 minutes” for “12 hours”

SMILES | IC50 (recombinant CYP-17) [nM] | IC50 (recombinant CYP-11) [nM] | IC50 (recombinant CYP-21) [nM] | inhibition at 0.1 µM (recombinant CYP-17; AD293, 4 h, read-out: Cyp17 % @ 0.1 μM (printed in the Cyp17 IC50 column)) [%]
COCCOC(=O)N1CCN(c2ccc(OC[C@@H]3CO[C@@](Cn4ccnc4)(c4ccc(Cl)cc4Cl)O3)cc2)CC1 (racemic) [Entry 2] | 100 | 100 | 230 | 
CCCS(=O)(=O)N1CCN(c2ccc(OC[C@@H]3CO[C@@](Cn4ccnc4)(c4ccc(Cl)cc4Cl)O3)cc2)CC1 [Entry 22] | 8 | 91 | 128 | 
Clc1ccc([C@]2(Cn3ccnc3)OC[C@@H](COc3ccc(N4CCN(C5=NCCO5)CC4)cc3)O2)c(Cl)c1 (racemic) [Entry 34] | 30 | 148 | 423 | 
O=S(=O)(CCC(F)(F)F)N1CCN(c2ccc(OC[C@@H]3CO[C@@](Cn4ccnc4)(c4ccc(Cl)cc4Cl)O3)cc2)CC1 [Entry 27] | 240 | 10000 | 373 | 
CCNC(=O)N1CCN(c2ccc(OC[C@H]3CO[C@](Cn4ccnc4)(c4ccc(Cl)cc4Cl)O3)cc2)CC1 [Entry 14] | 43 | 500 |  | 
COC(=O)[C@H](Cc1ccccc1)NC(=O)N1CCN(c2ccc(OC[C@@H]3CO[C@@](Cn4ccnc4)(c4ccc(Cl)cc4Cl)O3)cc2)CC1 [Entry 17] | 43 | 100 | 360 | 
CN(C)C(=O)N1CCN(c2ccc(OC[C@@H]3CO[C@@](Cn4ccnc4)(c4ccc(Cl)cc4Cl)O3)cc2)CC1 (racemic) [Entry 3] | 100 | 100 |  | 
CCOC(=O)CNC(=O)N1CCN(c2ccc(OC[C@@H]3CO[C@@](Cn4ccnc4)(c4ccc(Cl)cc4Cl)O3)cc2)CC1 [Entry 13] | 25 | 66 | 710 | 

Second part, the compound after the results:

IC50 (recombinant CYP-17) [nM] | IC50 (recombinant CYP-11) [nM] | IC50 (recombinant CYP-21) [nM] | inhibition at 0.1 µM (recombinant CYP-17; AD293, 4 h, read-out: Cyp17 % @ 0.1 μM (printed in the Cyp17 IC50 column)) [%] | SMILES
11 | 280 | 80 |  | O=S(=O)(CC(F)F)N1CCN(c2ccc(OC[C@@H]3CO[C@@](Cn4ccnc4)(c4ccc(Cl)cc4Cl)O3)cc2)CC1 [Entry 29]
310 | 530 | 2460 |  | CCOC(=O)CNC(=O)N1CCN(c2ccc(OC[C@H]3CO[C@](Cn4ccnc4)(c4ccc(Cl)cc4Cl)O3)cc2)CC1 [Entry 15]
137 | 110 | 720 |  | COC(=O)[C@@H](NC(=O)N1CCN(c2ccc(OC[C@H]3CO[C@](Cn4ccnc4)(c4ccc(Cl)cc4Cl)O3)cc2)CC1)C(C)C [Entry 18]
 | 100 | 160 | 83 | COC(=O)N1CCN(c2ccc(OC[C@@H]3CO[C@@](Cn4ccnc4)(c4ccc(Cl)cc4Cl)O3)cc2)CC1 (racemic) [Entry 1]
35 | 52 | 690 |  | CCNC(=O)N1CCN(c2ccc(OC[C@@H]3CO[C@@](Cn4ccnc4)(c4ccc(Cl)cc4Cl)O3)cc2)CC1 [Entry 12]
10 | 100 | 244 |  | COC(=O)[C@@H](NC(=O)N1CCN(c2ccc(OC[C@@H]3CO[C@@](Cn4ccnc4)(c4ccc(Cl)cc4Cl)O3)cc2)CC1)C(C)C [Entry 16]
610 | 70 | 78 |  | O=S(=O)(CC(F)(F)F)N1CCN(c2ccc(OC[C@@H]3CO[C@@](Cn4ccnc4)(c4ccc(Cl)cc4Cl)O3)cc2)CC1 [Entry 20]
250 | 240 | 740 |  | COC(=O)[C@H](Cc1ccccc1)NC(=O)N1CCN(c2ccc(OC[C@H]3CO[C@](Cn4ccnc4)(c4ccc(Cl)cc4Cl)O3)cc2)CC1 [Entry 19]
45 | 388 | 249 |  | CC(C)CS(=O)(=O)N1CCN(c2ccc(OC[C@@H]3CO[C@@](Cn4ccnc4)(c4ccc(Cl)cc4Cl)O3)cc2)CC1 [Entry 23]
340 | 1900 | 10000 |  | N=C(N)N1CCN(c2ccc(OC[C@@H]3CO[C@@](Cn4ccnc4)(c4ccc(Cl)cc4Cl)O3)cc2)CC1 [Entry 33]
